Source: US20160145257A1, “SUBSTITUTED XANTHINES AND METHODS OF USE THEREOF” (Hydra Biosciences, Inc., priority 2013, published 2016)

Molecular target: T1, hTRPC5 (Homo sapiens, UniProt Q9UL62)
T1 construct: expressed in transfected cells; host or cells: HEK293 TREx cells with inducible TRPC5 expression
T1 sequence (Q9UL62 1-973): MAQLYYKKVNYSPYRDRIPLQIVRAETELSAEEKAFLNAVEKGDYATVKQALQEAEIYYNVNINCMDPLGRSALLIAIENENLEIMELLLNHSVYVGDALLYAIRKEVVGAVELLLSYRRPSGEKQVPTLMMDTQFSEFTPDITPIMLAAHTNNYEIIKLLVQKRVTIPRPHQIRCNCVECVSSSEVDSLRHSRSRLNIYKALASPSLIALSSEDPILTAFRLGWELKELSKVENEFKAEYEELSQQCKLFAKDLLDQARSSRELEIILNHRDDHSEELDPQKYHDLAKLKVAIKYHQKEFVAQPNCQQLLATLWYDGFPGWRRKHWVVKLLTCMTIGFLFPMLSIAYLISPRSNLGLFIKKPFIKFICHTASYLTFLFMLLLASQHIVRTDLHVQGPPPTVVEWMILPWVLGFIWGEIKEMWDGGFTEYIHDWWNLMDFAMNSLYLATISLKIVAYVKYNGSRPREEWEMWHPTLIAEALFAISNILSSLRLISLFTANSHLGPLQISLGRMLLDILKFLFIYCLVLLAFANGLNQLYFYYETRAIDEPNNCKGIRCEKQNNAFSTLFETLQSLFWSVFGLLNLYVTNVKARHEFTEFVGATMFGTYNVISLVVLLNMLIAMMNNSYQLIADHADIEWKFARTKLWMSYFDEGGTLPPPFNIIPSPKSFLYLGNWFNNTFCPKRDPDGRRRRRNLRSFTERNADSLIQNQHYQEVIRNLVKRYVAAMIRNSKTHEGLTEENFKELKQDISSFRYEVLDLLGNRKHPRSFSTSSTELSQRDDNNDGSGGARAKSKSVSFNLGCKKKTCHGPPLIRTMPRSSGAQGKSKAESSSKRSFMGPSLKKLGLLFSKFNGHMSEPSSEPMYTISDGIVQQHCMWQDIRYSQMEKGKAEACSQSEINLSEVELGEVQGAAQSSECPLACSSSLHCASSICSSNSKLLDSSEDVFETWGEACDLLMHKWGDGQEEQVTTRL
Assay: Whole-cell patch clamp, block of LaCl3-activated TRPC5 inward current
Type: cell-based
Conditions: TRPC5-expressing HEK293 TREx cells, 80 μM LaCl3, inward current, IC50 estimated from 5 μM and 500 nM, read-out: hTRPC5 Patch La3+ Inwd (nM) (All Batches)
Protocol: In certain embodiments, exemplary compounds of Formula I and Formula II include the compounds described in Table 1 and in the Examples. A compound described herein may be tested for its ability to block both inward and outward currents through the TRPC5 channel, e.g., by an assay as described in Example 1. For example, IC50 of a compound of Formula I or Formula II was estimated by testing the compound at 5 μM and 500 nM. […] IC50 for a compound of Formula I or Formula II between 500 nM and 5 μM was similarly estimated. As shown, “A” refers to an IC50<100 nM. “B” refers to an IC50 between 100 nM and 500 nM. “C” refers to an IC50 between 500 nM and 1000 nM. “D” refers to an IC50 between 1 μM and 2 μM. “E” refers to an IC50 between 2 μM and 10 μM. “F” refers to […]. “ND” refers to compounds wherein the IC50 was not determined.
Patch clamp experiments permit the detection of currents through the TRPC5 channel in the cell line described above. In normal whole-cell patch clamp recordings, a glass electrode is brought into contact with a single cell and a high-resistance (gigaohm) seal is established with the cell membrane. The membrane is then ruptured to achieve the whole-cell configuration, permitting control of the voltage of the cell membrane and measurement of currents flowing across the membrane using the amplifier attached to the electrode and resulting in the replacement of cytoplasm with the pipette solution. A perfusion system permits control of the extracellular solution, including the addition of blockers and activators of the current. The current can be activated by including 1.4 μM free Ca^2+ in the pipette (intracellular) solution, and 80 μM LaCl3 in the extracellular solution.
TRPC5 cells were induced 20-48 hours, removed from growth plates, and replated at low density (to attain good single-cell physical separation) on glass coverslips for measurement. In some cases, cells were grown in low density overnight on glass coverslips. Patch clamp recordings were made in the whole-cell mode with a holding potential of −40 mV. Every 5 seconds, a voltage ramp was applied from −120 to +100 mV, 400 ms in duration. Currents elicited were quantified at −80 mV and +80 mV. The internal solution consisted of 140 mM cesium aspartate, 10 mM HEDTA, 2 mM CaCl2, 2.27 mM MgCl2 and 10 mM HEPES, pH 7.2, with 1,400 nM calculated free Ca^2+. The external solution consisted of 150 mM NaCl, 4.5 mM KCl, 1 mM MgCl2, 2 mM CaCl2, 10 mM HEPES, 10 mM glucose, 1 mM EGTA, pH 7.4. Upon addition of LaCl3, TRPC5 current was induced only in TRPC5-expressing cells and not in parental HEK293 TREx cells. Removal of the LaCl3 stimulus causes most of the current to go away. Potential blockers were tested for ability to block both inward and outward currents in the continued presence of LaCl3.
IC50 of a compound of Formula I or Formula II was estimated by testing the compound at 5 μM and 500 nM. […] IC50 for a compound of Formula I or Formula II between 500 nM and 5 μM was similarly estimated.

| IC50 [nM] | Structure (SMILES) |
| --- | --- |
| 2000 to 10000 | CCOCCNc1nc2c(c(=O)n(C)c(=O)n2C)n1Cc1cccc(Br)c1 [Compound 21] |
| 100 to 500 | Cn1c(=O)c2c(nc(Oc3cccc(C(F)(F)F)c3)n2Cc2cccc3ccccc23)n(C)c1=O [Compound 179, 1,3-dimethyl-7-(naphthalen-1-ylmethyl)-8-(3-(trifluoromethyl)phenoxy)-1H-purine-2,6(3H,7H)-dione] |
| 1000 to 2000 | CCCOCCc1nc2c(c(=O)n(C)c(=O)n2C)n1Cc1ccc(Br)cc1 [Compound 95, 7-(4-bromobenzyl)-1,3-dimethyl-8-(2-propoxyethyl)-1H-purine-2,6(3H,7H)-dione] |
| 100 to 500 | CCc1coc(CSc2nc3c(c(=O)n(C)c(=O)n3C)n2Cc2ccc(OC(F)(F)F)cc2)n1 [Compound 148, 8-((4-ethyloxazol-2-yl)methylthio)-1,3-dimethyl-7-(4-(trifluoromethoxy)benzyl)-1H-purine-2,6(3H,7H)-dione] |
| 500 to 1000 | CCCOCCc1nc2c(c(=O)n(C)c(=O)n2C)n1Cc1ccc(Cl)cc1 [Compound 93] |
| 2000 to 10000 | CCOCCSc1nc2c(c(=O)n(C)c(=O)n2C)n1Cc1cccc(Cl)c1 [Compound 16] |
| 100 to 500 | Cn1c(=O)c2c(nc(Oc3cccc(C(F)(F)F)c3)n2Cc2ccc(Cl)cc2)n(C)c1=O [Compound 73] |
| < 100 | CCOC(=O)c1cccc(Oc2nc3c(c(=O)n(C)c(=O)n3C)n2Cc2cccc(Br)c2)c1 [Compound 57, Ethyl 3-(7-(3-bromobenzyl)-1,3-dimethyl-2,6-dioxo-2,3,6,7-tetrahydro-1H-purin-8-yloxy)benzoate] |
| 1000 to 2000 | CCOC(=O)C(C)CCc1nc2c(c(=O)n(C)c(=O)n2C)n1Cc1cccc(Br)c1 (stereo not shown) [Compound 136, Ethyl 4-(7-(3-bromobenzyl)-1,3-dimethyl-2,6-dioxo-2,3,6,7-tetrahydro-1H-purin-8-yl)-2-methylbutanoate] |
| 100 to 500 | CCOCc1cccc(Oc2nc3c(c(=O)n(C)c(=O)n3C)n2Cc2cccc(Br)c2)c1 [Compound 126, 7-(3-bromobenzyl)-8-(3-(ethoxymethyl)phenoxy)-1,3-dimethyl-1H-purine-2,6(3H,7H)-dione] |
| 2000 to 10000 | CCc1coc(CSc2nc3c(c(=O)n(C)c(=O)n3C)n2Cc2cccc(C(C)=O)c2)n1 [Compound 180, 7-(3-acetylbenzyl)-8-((4-ethyloxazol-2-yl)methylthio)-1,3-dimethyl-1H-purine-2,6(3H,7H)-dione] |
| 2000 to 10000 | CN(C)Cc1ccc(Cn2c(Oc3cccc(OC(F)(F)F)c3)nc3c2c(=O)n(C)c(=O)n3C)cc1 [Compound 186] |
| 2000 to 10000 | COc1cccc(Cn2c(Oc3ccc(-c4ccccc4)nc3)nc3c2c(=O)n(C)c(=O)n3C)c1 [Compound 171] |
| < 100 | CCCC(=O)C(C)(C)Sc1nc2c(c(=O)n(C)c(=O)n2C)n1Cc1cccc(Br)c1 [Compound 150, 7-(3-bromobenzyl)-1,3-dimethyl-8-(2-methyl-3-oxohexan-2-ylthio)-1H-purine-2,6(3H,7H)-dione] |
| 100 to 500 | CCc1coc(CSc2nc3c(c(=O)n(C)c(=O)n3C)n2Cc2cccc(OC(F)(F)F)c2)n1 [Compound 106, 8-((4-ethyloxazol-2-yl)methylthio)-1,3-dimethyl-7-(3-(trifluoromethoxy)benzyl)-1H-purine-2,6(3H,7H)-dione] |
| 2000 to 10000 | CCCOCCc1nc2c(c(=O)n(C)c(=O)n2C)n1Cc1cccc(C(N)=O)c1 [Compound 121] |

| IC50 [nM] | Structure (SMILES) |
| --- | --- |
| 100 to 500 | Cn1c(=O)c2c(nc(Oc3cccc(Cl)c3)n2Cc2cccc(Br)c2)n(C)c1=O [Compound 110, 7-(3-bromobenzyl)-8-(3-chlorophenoxy)-1,3-dimethyl-1H-purine-2,6(3H,7H)-dione] |
| 2000 to 10000 | Cn1c(=O)c2c(nc(SCc3ccncc3)n2Cc2cccc(Br)c2)n(C)c1=O [Compound 11, 7-(3-bromobenzyl)-1,3-dimethyl-8-(pyridin-4-ylmethylthio)-1H-purine-2,6(3H,7H)-dione] |
| 2000 to 10000 | CCCOCCc1nc2c(c(=O)n(C)c(=O)n2C)n1Cc1ccc(OC)cc1 [Compound 89] |
| 2000 to 10000 | CCCOCCc1nc2c(c(=O)n(C)c(=O)n2C)n1Cc1ccc(C#N)cc1 [Compound 118] |
| < 100 | Cn1c(=O)c2c(nc(Oc3cc(Cl)cc(OC(F)(F)F)c3)n2Cc2ccc(Cl)cc2)n(C)c1=O [Compound 202, 8-(3-chloro-5-(trifluoromethoxy)phenoxy)-7-(4-chlorobenzyl)-1,3-dimethyl-1H-purine-2,6(3H,7H)-dione] |
| 2000 to 10000 | CCCOCCc1nc2c(c(=O)n(C)c(=O)n2C)n1Cc1ccc(F)cc1 [Compound 108] |
| 2000 to 10000 | CCCOCCc1nc2c(c(=O)n(C)c(=O)n2C)n1Cc1ccc(C(C)=O)cc1 [Compound 158] |
| 100 to 500 | Cc1ccc(Cn2c(Oc3cccc(OC(F)(F)F)c3)nc3c2c(=O)n(C)c(=O)n3C)cc1 [Compound 178, 1,3-dimethyl-7-(4-methylbenzyl)-8-(3-(trifluoromethoxy)phenoxy)-1H-purine-2,6(3H,7H)-dione] |
| 2000 to 10000 | Cn1c(=O)c2c(nc(Oc3cccc(C(F)(F)F)c3)n2Cc2ccc3ccccc3c2)n(C)c1=O [Compound 185, 1,3-dimethyl-7-(naphthalen-2-ylmethyl)-8-(3-(trifluoromethyl)phenoxy)-1H-purine-2,6(3H,7H)-dione] |
| 2000 to 10000 | CCCCc1cccc(Oc2nc3c(c(=O)n(C)c(=O)n3C)n2Cc2cccc(Br)c2)c1 [Compound 174, 7-(3-bromobenzyl)-8-(3-butylphenoxy)-1,3-dimethyl-1H-purine-2,6(3H,7H)-dione] |
| 100 to 500 | CCc1cnc(CSc2nc3c(c(=O)n(C)c(=O)n3C)n2Cc2cccc(Br)c2)o1 [Compound 23] |
| 100 to 500 | CCCOCCOc1nc2c(c(=O)n(C)c(=O)n2C)n1Cc1cccc(Br)c1 [Compound 99, 7-(3-bromobenzyl)-1,3-dimethyl-8-(2-propoxyethoxy)-1H-purine-2,6(3H,7H)-dione] |
| 500 to 1000 | CCOCc1cccc(C(CC)c2nc3c(c(=O)n(C)c(=O)n3C)n2Cc2cccc(Br)c2)c1 (stereo not shown) [Compound 125, 7-(3-bromobenzyl)-8-(1-(3-(ethoxymethyl)phenyl)propyl)-1,3-dimethyl-1H-purine-2,6(3H,7H)-dione] |
| 2000 to 10000 | Cn1c(=O)c2c(nc(CO)n2Cc2cccc(Br)c2)n(C)c1=O [Compound 35] |
| 2000 to 10000 | CCCOCCc1nc2c(c(=O)n(C)c(=O)n2C)n1Cc1cccc(CO)c1 [Compound 141] |
